The target in this assay is T1, MhFPPS (MhIDS-2), full-length (Murgantia histrionica, UniProt A0A343W970).
T1 sequence (A0A343W970 1-405): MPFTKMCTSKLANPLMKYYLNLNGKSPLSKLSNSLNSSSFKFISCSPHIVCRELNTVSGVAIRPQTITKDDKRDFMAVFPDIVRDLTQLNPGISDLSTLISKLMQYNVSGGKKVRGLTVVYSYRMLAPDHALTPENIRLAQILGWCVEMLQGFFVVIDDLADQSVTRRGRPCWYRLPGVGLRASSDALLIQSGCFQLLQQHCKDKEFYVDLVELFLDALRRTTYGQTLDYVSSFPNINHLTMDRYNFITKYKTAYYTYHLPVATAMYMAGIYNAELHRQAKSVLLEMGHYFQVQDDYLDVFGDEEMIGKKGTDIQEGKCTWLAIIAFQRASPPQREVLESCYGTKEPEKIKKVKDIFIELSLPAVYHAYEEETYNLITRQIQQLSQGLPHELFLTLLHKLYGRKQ
The assay can be described thus: LC-MS/MS product assay. The class given is biochemical.

This is an account of results in PMC6140472 (Proceedings of the National Academy of Sciences of the …, 2018).

Consider `C=C(C)CCOP(=O)(O)OP(=O)(O)O` [IPP], for which the LC-MS/MS product assay result (co-substrate DMAPP) is “MhIDS-2 produced (E,E)-FPP from IPP and DMAPP”.

On to `CC(C)=CCOP(=O)(O)OP(=O)(O)O` [DMAPP], for which the LC-MS/MS product assay entry (co-substrate IPP) was “MhIDS-2 produced (E,E)-FPP from IPP and DMAPP”.
